The results in this text go back to ChEMBL document CHEMBL4422610, “HDAC as onco target: Reviewing the synthetic approaches with SAR study of their inhibitors” (Eur J Med Chem, 2018).

SMILES strings stand for the structures.

Sequence of Histone deacetylase 9 (Q9UKV0 whole entry): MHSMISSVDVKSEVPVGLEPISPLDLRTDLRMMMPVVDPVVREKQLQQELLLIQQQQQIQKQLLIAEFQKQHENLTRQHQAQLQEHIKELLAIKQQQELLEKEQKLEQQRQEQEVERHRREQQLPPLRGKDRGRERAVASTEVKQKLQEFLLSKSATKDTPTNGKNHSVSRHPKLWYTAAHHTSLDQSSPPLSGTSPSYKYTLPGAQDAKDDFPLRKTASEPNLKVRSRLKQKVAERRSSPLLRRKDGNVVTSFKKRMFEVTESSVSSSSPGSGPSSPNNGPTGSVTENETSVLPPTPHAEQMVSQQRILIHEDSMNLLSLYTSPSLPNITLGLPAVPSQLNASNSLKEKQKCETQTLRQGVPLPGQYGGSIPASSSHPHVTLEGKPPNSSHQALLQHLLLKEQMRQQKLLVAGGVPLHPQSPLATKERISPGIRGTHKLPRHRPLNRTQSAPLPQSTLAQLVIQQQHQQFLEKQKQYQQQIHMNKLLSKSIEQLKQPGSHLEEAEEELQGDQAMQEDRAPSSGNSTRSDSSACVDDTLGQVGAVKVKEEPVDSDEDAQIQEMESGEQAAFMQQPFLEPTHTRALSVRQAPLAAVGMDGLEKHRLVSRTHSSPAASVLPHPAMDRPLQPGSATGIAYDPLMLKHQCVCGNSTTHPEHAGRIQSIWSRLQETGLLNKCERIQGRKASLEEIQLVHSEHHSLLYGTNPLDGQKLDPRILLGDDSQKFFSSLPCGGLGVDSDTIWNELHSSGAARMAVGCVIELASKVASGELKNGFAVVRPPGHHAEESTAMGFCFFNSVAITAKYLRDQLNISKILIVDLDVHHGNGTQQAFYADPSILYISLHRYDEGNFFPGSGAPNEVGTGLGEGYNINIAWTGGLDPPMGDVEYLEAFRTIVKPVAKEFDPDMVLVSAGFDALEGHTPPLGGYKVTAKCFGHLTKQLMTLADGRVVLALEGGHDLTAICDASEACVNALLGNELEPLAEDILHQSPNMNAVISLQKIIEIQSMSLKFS
Sequence of Histone deacetylase 4 (P56524 whole entry): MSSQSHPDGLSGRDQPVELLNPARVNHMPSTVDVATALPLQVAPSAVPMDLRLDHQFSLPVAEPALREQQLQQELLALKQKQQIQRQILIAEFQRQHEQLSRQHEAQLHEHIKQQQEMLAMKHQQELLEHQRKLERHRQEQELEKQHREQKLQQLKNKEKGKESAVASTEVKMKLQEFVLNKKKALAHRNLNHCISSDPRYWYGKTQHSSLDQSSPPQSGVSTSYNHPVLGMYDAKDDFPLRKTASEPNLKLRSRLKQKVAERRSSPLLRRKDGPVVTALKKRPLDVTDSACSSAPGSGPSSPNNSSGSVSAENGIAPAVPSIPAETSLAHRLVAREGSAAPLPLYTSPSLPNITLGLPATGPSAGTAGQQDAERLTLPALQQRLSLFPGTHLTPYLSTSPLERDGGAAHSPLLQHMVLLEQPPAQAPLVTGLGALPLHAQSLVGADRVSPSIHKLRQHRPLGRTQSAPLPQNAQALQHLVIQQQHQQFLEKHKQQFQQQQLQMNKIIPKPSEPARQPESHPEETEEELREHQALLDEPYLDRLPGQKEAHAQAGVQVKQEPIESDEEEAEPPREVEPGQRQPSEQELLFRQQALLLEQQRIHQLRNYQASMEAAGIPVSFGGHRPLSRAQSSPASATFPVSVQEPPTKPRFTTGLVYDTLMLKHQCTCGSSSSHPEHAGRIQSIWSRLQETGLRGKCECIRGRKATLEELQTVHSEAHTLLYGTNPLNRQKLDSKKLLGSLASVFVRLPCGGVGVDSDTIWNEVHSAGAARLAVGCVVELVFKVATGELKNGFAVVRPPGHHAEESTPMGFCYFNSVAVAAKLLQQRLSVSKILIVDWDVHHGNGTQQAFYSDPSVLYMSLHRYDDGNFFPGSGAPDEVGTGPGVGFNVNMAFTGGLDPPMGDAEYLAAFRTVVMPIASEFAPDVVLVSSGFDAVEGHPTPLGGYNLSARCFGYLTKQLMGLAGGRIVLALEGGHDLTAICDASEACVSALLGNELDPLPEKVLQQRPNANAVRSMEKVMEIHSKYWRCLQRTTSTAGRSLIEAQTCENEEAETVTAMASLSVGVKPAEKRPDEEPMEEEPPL
Sequence of Histone deacetylase 3 (O15379 whole entry): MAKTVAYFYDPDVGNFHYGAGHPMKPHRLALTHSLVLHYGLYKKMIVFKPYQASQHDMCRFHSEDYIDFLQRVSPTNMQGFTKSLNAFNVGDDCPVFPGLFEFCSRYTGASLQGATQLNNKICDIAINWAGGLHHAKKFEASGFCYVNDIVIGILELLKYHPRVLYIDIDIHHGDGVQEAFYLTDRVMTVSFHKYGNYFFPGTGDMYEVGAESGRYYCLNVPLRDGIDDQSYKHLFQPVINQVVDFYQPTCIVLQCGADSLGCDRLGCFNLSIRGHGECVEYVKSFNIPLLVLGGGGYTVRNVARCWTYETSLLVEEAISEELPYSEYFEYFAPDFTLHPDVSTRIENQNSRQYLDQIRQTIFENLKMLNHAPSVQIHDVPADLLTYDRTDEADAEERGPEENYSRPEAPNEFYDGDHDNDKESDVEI

The target of one experiment is T1, Histone deacetylase 1 (Homo sapiens, UniProt Q13547). Briefly: Inhibition of GST-tagged HDAC1 (unknown origin) expressed in insect cells using poly (Glu, Tyr) 4:1 as substrate measured after 15 mins in presence of [gamma-33P]ATP by Topcount method.
T1 sequence (Q13547 whole entry): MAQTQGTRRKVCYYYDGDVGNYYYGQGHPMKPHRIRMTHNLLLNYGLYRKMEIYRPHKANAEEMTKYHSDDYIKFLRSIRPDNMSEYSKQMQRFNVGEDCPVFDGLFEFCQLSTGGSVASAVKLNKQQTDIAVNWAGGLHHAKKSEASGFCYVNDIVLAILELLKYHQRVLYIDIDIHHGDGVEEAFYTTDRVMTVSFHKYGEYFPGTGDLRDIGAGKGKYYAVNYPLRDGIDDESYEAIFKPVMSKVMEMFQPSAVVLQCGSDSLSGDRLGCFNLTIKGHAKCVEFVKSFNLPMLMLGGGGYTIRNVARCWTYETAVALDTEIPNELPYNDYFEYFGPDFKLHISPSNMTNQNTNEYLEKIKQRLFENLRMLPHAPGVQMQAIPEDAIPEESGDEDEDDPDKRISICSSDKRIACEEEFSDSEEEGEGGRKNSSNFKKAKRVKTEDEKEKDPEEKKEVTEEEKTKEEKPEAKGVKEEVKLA
With `Cc1nn2ccccc2c1CCN1CCCC1c1ccc(/C=C/C(=O)NO)cc1` (configuration not stated), the IC50 was determined as 0.0006 µM.
Turning to `CCc1n[nH]c(CC)c1CCN1CCCC1c1ccc(/C=C/C(=O)NO)cc1` (configuration not stated), the IC50 worked out at 0.0008 µM.
Still for that read-out and setting: under `CC(C)c1[nH]c2ccccc2c1C1CCCN(Cc2ccc(/C=C/C(=O)NO)cc2)C1` (configuration not stated) stands 0.006 µM; under `O=C(/C=C/c1ccc(C2CCCN2CCc2c(-c3cccnc3)nn3ccccc23)cc1)NO` (configuration not stated), 0.001 µM.

For a further experiment, the target named is T1, Histone deacetylase 1. Briefly: Inhibition of human HDAC1 using fluorogenic HDAC substrate.
`O=C(NO)c1ccc(CN2c3cc(C(F)(F)F)ccc3CCC[C@@H]3CCCC[C@H]32)cc1` showed an IC50 of 8.8 µM.
`O=C(NO)c1ccc(Cn2c3c(c4cc(F)ccc42)C[S+]([O-])CC3)cc1` (configuration not stated) showed an IC50 of 9.4 µM.
`O=C(NO)c1ccc(CN2c3ccccc3C3C2CCS3(=O)=O)cc1` (configuration not stated): inhibition was half-maximal at 12 µM (IC50).

The target of a further experiment is Histone deacetylase 2 (Homo sapiens, UniProt Q92769). Nature of the experiment: Inhibition of human HDAC2 using fluorogenic HDAC substrate.
Sequence of Histone deacetylase 2 (Q92769 whole entry): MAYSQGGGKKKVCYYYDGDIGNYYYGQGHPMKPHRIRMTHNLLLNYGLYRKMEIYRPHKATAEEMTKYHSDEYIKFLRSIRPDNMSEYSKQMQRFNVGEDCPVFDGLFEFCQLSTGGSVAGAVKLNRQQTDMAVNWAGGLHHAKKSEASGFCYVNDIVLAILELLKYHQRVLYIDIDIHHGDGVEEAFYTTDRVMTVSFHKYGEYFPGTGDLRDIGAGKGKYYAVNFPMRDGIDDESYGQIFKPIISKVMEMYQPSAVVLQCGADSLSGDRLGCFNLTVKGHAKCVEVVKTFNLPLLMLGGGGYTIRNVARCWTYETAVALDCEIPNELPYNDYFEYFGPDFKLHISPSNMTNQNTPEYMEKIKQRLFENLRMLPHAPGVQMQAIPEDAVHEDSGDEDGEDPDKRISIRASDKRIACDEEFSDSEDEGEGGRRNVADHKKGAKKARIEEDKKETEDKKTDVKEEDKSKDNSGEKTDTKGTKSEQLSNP
Take `O=C(NO)c1ccc(CN2c3cc(C(F)(F)F)ccc3CCC[C@@H]3CCCC[C@H]32)cc1`: the IC50 turned out to be 16 µM.
The same measure, in the same setting: to `O=C(NO)c1ccc(Cn2c3c(c4cc(F)ccc42)C[S+]([O-])CC3)cc1` (configuration not stated) belongs over 30 µM; to `O=C(NO)c1ccc(CN2c3ccccc3C3C2CCS3(=O)=O)cc1` (configuration not stated), over 30 µM.

A further experiment concerns the target Histone deacetylase 3 (Homo sapiens, UniProt O15379). Nature of the experiment: Inhibition of human HDAC3 using fluorogenic HDAC substrate.
In turn, `O=C(NO)c1ccc(CN2c3cc(C(F)(F)F)ccc3CCC[C@@H]3CCCC[C@H]32)cc1` gave an IC50 of 18 µM.
The compound `O=C(NO)c1ccc(Cn2c3c(c4cc(F)ccc42)C[S+]([O-])CC3)cc1` (configuration not stated) yielded an IC50 of 24 µM.

Another experiment has as its target Histone deacetylase 4 (Homo sapiens, UniProt P56524). Briefly: Inhibition of human HDAC4 using fluorogenic HDAC substrate.
The compound `O=C(NO)c1ccc(Cn2c3c(c4cc(F)ccc42)C[S+]([O-])CC3)cc1` (configuration not stated) showed an IC50 of 1.2 µM.
In turn, `O=C(NO)c1ccc(CN2c3ccccc3C3C2CCS3(=O)=O)cc1` (configuration not stated) registered an IC50 of 0.6 µM.

In another experiment the target is Histone deacetylase 5 (Homo sapiens, UniProt Q9UQL6). Briefly: Inhibition of human HDAC5 using fluorogenic HDAC substrate.
Sequence of Histone deacetylase 5 (Q9UQL6 whole entry): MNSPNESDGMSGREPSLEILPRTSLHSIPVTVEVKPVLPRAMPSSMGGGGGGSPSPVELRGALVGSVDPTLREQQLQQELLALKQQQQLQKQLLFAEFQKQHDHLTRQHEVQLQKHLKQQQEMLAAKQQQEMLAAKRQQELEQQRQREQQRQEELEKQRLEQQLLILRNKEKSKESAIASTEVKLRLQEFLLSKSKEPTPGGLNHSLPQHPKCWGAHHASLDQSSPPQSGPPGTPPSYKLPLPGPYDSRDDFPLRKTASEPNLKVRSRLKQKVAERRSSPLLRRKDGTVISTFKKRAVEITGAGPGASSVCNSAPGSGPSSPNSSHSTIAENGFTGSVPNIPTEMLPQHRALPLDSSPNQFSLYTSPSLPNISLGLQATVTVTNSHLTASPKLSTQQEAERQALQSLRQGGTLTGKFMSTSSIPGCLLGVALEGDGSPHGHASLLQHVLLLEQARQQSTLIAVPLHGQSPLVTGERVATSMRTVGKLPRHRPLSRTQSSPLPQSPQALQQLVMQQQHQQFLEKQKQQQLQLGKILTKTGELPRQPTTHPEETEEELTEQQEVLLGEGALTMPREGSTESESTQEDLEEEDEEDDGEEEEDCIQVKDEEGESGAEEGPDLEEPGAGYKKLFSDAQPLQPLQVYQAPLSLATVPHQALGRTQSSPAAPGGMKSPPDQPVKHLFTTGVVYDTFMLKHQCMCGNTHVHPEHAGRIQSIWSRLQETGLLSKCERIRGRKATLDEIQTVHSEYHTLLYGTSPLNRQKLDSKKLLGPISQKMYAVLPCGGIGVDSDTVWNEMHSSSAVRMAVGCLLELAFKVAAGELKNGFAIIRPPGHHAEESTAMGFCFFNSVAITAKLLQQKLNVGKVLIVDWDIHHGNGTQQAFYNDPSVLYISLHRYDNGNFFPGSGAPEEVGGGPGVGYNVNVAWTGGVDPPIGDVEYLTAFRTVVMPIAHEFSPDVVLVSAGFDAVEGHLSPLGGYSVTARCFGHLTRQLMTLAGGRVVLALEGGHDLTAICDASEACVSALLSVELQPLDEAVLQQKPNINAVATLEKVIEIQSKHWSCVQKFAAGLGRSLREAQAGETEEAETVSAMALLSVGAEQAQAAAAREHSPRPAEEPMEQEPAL
For the compound `O=C(NO)c1ccc(CN2c3cc(C(F)(F)F)ccc3CCC[C@@H]3CCCC[C@H]32)cc1`, the IC50 was determined as 22 µM.
Same read-out and setting: to `O=C(NO)c1ccc(Cn2c3c(c4cc(F)ccc42)C[S+]([O-])CC3)cc1` (configuration not stated) belongs 1.3 µM; to `O=C(NO)c1ccc(CN2c3ccccc3C3C2CCS3(=O)=O)cc1` (configuration not stated), 0.4 µM.

Another experiment deals with T2, Protein deacetylase HDAC6 (Homo sapiens, UniProt Q9UBN7).
T2 sequence (Q9UBN7 whole entry): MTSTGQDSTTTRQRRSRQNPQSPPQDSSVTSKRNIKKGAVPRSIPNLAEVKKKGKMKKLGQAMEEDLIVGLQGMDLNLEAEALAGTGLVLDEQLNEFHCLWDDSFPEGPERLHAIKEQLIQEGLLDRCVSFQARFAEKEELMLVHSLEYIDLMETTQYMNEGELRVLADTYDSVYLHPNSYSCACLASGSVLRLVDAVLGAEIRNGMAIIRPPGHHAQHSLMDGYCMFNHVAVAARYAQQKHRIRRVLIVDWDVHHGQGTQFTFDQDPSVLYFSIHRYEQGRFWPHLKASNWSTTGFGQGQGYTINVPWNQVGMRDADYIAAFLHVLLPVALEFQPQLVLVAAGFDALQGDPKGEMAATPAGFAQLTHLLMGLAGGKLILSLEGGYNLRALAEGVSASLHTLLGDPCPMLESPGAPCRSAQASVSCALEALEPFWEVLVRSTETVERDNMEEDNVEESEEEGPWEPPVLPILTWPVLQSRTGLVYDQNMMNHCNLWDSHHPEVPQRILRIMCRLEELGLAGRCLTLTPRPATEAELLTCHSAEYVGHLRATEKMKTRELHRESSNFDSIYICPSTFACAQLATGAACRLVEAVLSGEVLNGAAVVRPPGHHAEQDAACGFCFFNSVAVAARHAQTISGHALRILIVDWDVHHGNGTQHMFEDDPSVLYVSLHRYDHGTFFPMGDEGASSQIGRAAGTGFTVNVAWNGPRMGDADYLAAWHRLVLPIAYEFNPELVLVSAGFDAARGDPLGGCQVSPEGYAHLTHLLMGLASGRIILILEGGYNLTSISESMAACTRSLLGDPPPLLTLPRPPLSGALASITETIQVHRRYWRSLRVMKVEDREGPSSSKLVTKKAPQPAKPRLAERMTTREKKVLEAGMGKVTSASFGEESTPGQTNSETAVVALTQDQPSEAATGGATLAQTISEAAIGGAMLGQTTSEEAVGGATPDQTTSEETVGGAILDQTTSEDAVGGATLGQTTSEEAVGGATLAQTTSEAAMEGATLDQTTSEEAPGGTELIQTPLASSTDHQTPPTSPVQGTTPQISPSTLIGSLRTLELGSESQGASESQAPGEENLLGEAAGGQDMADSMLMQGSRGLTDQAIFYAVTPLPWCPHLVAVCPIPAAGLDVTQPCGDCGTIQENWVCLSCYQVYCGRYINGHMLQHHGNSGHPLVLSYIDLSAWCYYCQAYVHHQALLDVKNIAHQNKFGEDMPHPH
Nature of the experiment: Inhibition of human HDAC6 using fluorogenic HDAC substrate.
In turn, `O=C(NO)c1ccc(CN2c3cc(C(F)(F)F)ccc3CCC[C@@H]3CCCC[C@H]32)cc1` returned an IC50 of 0.011 µM.
In turn, `O=C(NO)c1ccc(Cn2c3c(c4cc(F)ccc42)C[S+]([O-])CC3)cc1` (configuration not stated) had an IC50 of 0.0094 µM.
On the same count and under the same terms, under `O=C(NO)c1ccc(CN2c3ccccc3C3C2CCS3(=O)=O)cc1` (configuration not stated) stands 0.0082 µM.

The target in a further experiment is T3, Histone deacetylase 8 (Homo sapiens, UniProt Q9BY41).
T3 sequence (Q9BY41 whole entry): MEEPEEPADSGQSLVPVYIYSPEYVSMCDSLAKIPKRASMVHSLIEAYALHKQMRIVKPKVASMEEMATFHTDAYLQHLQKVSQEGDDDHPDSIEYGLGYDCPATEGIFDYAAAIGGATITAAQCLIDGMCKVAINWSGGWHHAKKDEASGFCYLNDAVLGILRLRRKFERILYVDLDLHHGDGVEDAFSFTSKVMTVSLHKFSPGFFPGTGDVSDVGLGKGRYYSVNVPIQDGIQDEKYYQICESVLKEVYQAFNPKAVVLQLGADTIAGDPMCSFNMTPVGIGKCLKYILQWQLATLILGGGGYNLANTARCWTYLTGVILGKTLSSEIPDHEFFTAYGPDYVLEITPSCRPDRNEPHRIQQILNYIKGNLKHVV
Briefly: Inhibition of human HDAC8 using fluorogenic HDAC substrate.
Compound `O=C(NO)c1ccc(CN2c3cc(C(F)(F)F)ccc3CCC[C@@H]3CCCC[C@H]32)cc1` registered an IC50 of 2 µM.
Same read-out and setting: under `O=C(NO)c1ccc(Cn2c3c(c4cc(F)ccc42)C[S+]([O-])CC3)cc1` (configuration not stated) stands 2.4 µM; under `O=C(NO)c1ccc(CN2c3ccccc3C3C2CCS3(=O)=O)cc1` (configuration not stated), 1.9 µM.

The next experiment has as its target Histone deacetylase 9 (Homo sapiens, UniProt Q9UKV0). Nature of the experiment: Inhibition of human HDAC9 using fluorogenic HDAC substrate.
On to `O=C(NO)c1ccc(CN2c3cc(C(F)(F)F)ccc3CCC[C@@H]3CCCC[C@H]32)cc1`, for which the IC50 is over 30 µM.
In the case of `O=C(NO)c1ccc(Cn2c3c(c4cc(F)ccc42)C[S+]([O-])CC3)cc1` (configuration not stated), half-maximal inhibition (IC50) required 0.5 µM.
The same measure, in the same setting: under `O=C(NO)c1ccc(CN2c3ccccc3C3C2CCS3(=O)=O)cc1` (configuration not stated) stands 0.2 µM.

For another experiment, the target named is T4, Polyamine deacetylase HDAC10 (Homo sapiens, UniProt Q969S8).
T4 sequence (Q969S8 whole entry): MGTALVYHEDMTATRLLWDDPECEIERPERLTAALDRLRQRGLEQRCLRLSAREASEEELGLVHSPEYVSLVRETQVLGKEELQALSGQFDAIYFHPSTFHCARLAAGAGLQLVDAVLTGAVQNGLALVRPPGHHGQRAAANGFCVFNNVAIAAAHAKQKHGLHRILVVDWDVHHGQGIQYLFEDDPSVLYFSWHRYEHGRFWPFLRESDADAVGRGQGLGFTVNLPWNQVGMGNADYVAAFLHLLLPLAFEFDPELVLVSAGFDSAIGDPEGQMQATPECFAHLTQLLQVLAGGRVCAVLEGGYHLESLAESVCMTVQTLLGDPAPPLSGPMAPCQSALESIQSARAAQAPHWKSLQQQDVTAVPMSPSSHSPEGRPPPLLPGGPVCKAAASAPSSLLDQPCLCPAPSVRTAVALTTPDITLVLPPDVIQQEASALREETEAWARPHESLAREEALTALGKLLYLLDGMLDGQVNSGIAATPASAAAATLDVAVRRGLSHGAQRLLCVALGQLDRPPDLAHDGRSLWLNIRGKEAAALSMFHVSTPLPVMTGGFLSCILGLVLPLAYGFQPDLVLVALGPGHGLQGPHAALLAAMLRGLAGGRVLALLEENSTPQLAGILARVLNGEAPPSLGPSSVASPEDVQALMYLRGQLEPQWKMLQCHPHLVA
Briefly: Inhibition of human HDAC10 using fluorogenic HDAC substrate.
The compound `O=C(NO)c1ccc(CN2c3cc(C(F)(F)F)ccc3CCC[C@@H]3CCCC[C@H]32)cc1` gave an IC50 of 9.4 µM.
Still for that read-out and setting: under `O=C(NO)c1ccc(Cn2c3c(c4cc(F)ccc42)C[S+]([O-])CC3)cc1` (configuration not stated) stands 6.4 µM; under `O=C(NO)c1ccc(CN2c3ccccc3C3C2CCS3(=O)=O)cc1` (configuration not stated), 13 µM.

The next experiment addresses T5, Histone deacetylase 11 (Homo sapiens, UniProt Q96DB2).
T5 sequence (Q96DB2 whole entry): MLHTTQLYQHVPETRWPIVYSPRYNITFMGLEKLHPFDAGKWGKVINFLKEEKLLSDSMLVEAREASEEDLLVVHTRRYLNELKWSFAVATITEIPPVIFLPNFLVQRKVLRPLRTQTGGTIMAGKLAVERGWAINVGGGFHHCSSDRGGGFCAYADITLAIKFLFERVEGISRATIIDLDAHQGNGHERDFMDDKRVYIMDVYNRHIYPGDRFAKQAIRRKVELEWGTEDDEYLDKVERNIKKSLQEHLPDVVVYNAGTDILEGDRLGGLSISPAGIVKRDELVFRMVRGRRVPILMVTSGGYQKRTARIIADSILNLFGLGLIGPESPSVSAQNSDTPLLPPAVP
Nature of the experiment: Inhibition of human HDAC11 using fluorogenic HDAC substrate.
As for `O=C(NO)c1ccc(CN2c3cc(C(F)(F)F)ccc3CCC[C@@H]3CCCC[C@H]32)cc1`, the IC50 is 0.82 µM.
In the case of `O=C(NO)c1ccc(Cn2c3c(c4cc(F)ccc42)C[S+]([O-])CC3)cc1` (configuration not stated), the midpoint of inhibition, the IC50, lay at 0.5 µM.
`O=C(NO)c1ccc(CN2c3ccccc3C3C2CCS3(=O)=O)cc1` (configuration not stated) had an IC50 of 17 µM.

The IC50 is the point on the concentration scale where inhibition reaches its midpoint.
